Experimental data taken from patent publication US5885987A, “Phenylene derivatives” (Kowa Co., Ltd., priority 1996, dated 1999).
Read-outs that look alike come from different tables or passages of the source.

Experiments:
H1 receptor = target: T1, H1 receptor (Cavia porcellus, UniProt P31389); assay: H1 receptor binding inhibition test ([^3 H]mepyramin, guinea pig cerebromembranous protein); details: for inhibition at 100 µM / inhibition at 10 µM: read-out: H1 receptor (%), inhibition rate; for Kd: read-out: H1 receptor, dissociation constant KD; for inhibition at 10 µM: b: 10 μM
T1 construct: guinea pig cerebromembranous protein; from tissue; host or cells: guinea pig cerebral (brain) membranes
T1 sequence (P31389 whole entry): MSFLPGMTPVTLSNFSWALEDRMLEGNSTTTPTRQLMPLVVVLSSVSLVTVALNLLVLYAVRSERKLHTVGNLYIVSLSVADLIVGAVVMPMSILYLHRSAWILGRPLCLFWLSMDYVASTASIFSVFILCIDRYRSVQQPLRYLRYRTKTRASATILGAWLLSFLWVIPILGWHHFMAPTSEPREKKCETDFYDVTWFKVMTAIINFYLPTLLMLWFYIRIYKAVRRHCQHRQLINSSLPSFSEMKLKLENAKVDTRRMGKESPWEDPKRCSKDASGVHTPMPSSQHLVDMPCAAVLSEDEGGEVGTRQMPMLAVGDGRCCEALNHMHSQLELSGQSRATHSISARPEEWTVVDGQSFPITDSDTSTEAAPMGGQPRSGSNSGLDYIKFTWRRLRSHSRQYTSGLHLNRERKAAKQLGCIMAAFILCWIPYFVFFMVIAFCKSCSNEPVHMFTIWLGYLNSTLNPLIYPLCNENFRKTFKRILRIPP
Protocol: 1) H1 Receptor Binding Inhibition Test
An ice-cooled phosphate buffer was added to terminate the reaction, followed by immediate filtration through a Wattman CF/C filter. The filter was washed twice with 20 ml aliquots of the ice-cooled buffer. The radioactivity of the residue was measured by a liquid scintillation counter. From a measurement value obtained without the addition of the test compound and measurements values obtained upon addition of the test compound at various concentrations, the dose-response of the inhibitory action of the test compound was measured and the 50% inhibitory concentration (IC50) was determined. Using the Cheng-Prusoff formula, a dissociation constant was calculated from the IC50. In a binding assay, 10^-4 M R(-)dimethindene was used for the measurement of a nonspecific binding.

LTD4 receptor = target: T2, LTD4 receptor (Cavia porcellus, UniProt Q2NNR5); assay: LTD4 receptor binding inhibition test ([^3 H]leukotriene D4, guinea pig pulmomembranous protein); details: for Kd: read-out: LTD4 receptor, dissociation constant KD; for inhibition at 100 µM: a: 100 μM; for inhibition at 100 µM / inhibition at 10 µM: read-out: LTD4 receptor (%), inhibition rate; for inhibition at 10 µM: b: 10 μM
T2 construct: guinea pig pulmomembranous protein; from tissue; host or cells: guinea pig lung membranes
T2 sequence (Q2NNR5 1-340): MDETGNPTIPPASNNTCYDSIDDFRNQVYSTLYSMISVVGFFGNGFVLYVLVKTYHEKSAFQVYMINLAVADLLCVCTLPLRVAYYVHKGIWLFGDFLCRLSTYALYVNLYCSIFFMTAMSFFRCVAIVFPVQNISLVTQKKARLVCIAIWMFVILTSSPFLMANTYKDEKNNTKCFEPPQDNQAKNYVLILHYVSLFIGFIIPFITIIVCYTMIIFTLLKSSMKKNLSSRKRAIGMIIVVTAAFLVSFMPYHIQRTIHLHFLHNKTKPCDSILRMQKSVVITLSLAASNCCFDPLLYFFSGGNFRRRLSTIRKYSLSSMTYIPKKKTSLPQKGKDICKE
Protocol: 2) LTD4 Receptor Binding Inhibition Test
An ice-cooled tris hydrochloride/sodium chloride buffer (10 mM/100 mM, pH 7.5) was added to terminate the reaction, followed by immediate filtration through a Wattman CF/C filter. The filter was washed twice with 20 ml aliguots of the ice-cooled buffer. The radioactivity of the residue was measured by a liquid scintillation counter. […] In a binding assay, 2 μM leukotriene D4 was used for the measurement of a nonspecific binding.

[1] = 0.5 nM [^3 H]mepyramin, pH 7.5, 37° C., 30 minutes, calculated from IC50 with Cheng-Prusoff formula
[2] = 0.2 nM [^3 H]leukotriene D4, pH 7.5, 22° C., 30 minutes, calculated from IC50

inhibition at 100 µM (H1 receptor; a: 100 μM)	Kd (LTD4 receptor)	Compound	further results
43%	1.39 µM	O=C1CSc2cc(OCc3cccc(OCc4nc5ccccc5s4)c3)ccc2N1 [Example 40, 7-[3-(2-benzothiazolylmethoxy)benzyloxy)-3,4-dihydro-2H-1,4-benzothiazin-3-one]	–
–	–	CCOCCn1c(COc2ccc(COc3ccc4c(c3)SCC(=O)N4)cc2)nc2ccccc21 [Example 46, 7-[(N-ethoxyethylbenzimidazol-2-yl-methoxy)benzyloxy]-3,4-dihydro-2H-1,4-benzothiazin-3-one]	Kd (H1 receptor; [1]): 5.95 µM; Kd (LTD4 receptor; [2]): 6.4 µM
–	–	7-[3-(2-Quinolinylmethoxy)benzyloxy]-3,4-dihydro-2H-1,4-benzothiazin-3-one 1,1-dioxide [Example 77]	H1 receptor (%), inhibition rate (H1 receptor; a: 100 μM): 30%; Kd (LTD4 receptor; [2]): 0.129 µM
–	1.1 µM	CC1(C)C(=O)Nc2ccc(OCc3ccc(OCc4ccc5ccccc5n4)cc3)cc21 [Example 18, 3,3-dimethyl-5-[4-(2-quinolinylmethoxy)benzyloxy]-2,3-dihydro-1H-indol-2-one]	Kd (H1 receptor): 78.7 µM
–	0.0129 µM	O=C1CCCc2cc(OCc3cccc(OCc4ncc5ccccc5n4)c3)ccc21 [Example 90, 6-[3-(2-quinazolinylmethoxy)benzyloxy]-1-tetralone]	inhibition at 10 µM (H1 receptor): 8%
–	0.135 µM	Cn1c(COc2cccc(COc3ccc4c(c3)SCC(=O)N4)c2)nc2ccccc21 [Example 36, 7-(3-(N-methylbenzimidazo1-2-yl-methoxy)benzyloxy]-3,4-dihydro-2H-1,4-benzothiazin-3-one]	Kd (H1 receptor): 16.2 µM
–	–	O=C1CCS(=O)(=O)c2cc(OCc3cccc(OCc4ccc5ccccc5n4)c3)ccc2N1 [Example 76]	Kd (H1 receptor): 122 µM; inhibition at 100 µM (LTD4 receptor): 0%
–	0.315 µM	O=C1CSc2cc(NCc3cccc(OCc4ccc5ccccc5n4)c3)ccc2N1 [Example 94, 7-[3-(2-quinolinylmethoxy)benzylamino]-3,4-dihydro-2H-1,4-benzothiazin-3-one]	inhibition at 10 µM (H1 receptor): 37%
28%	–	O=C1CSc2c(cccc2NC(=O)c2ccc(OCc3ccc4ccccc4n3)cc2)N1 [Example 71, 8-[4-(2-Quinolinylmethoxy)benzoylamino]-3,4-dihydro-2H-1,4-benzothiazin-3-one]	inhibition at 100 µM (LTD4 receptor): 0%
–	1.51 µM	O=C1CSc2c(N=Cc3cccc(OCc4ccc5ccccc5n4)c3)cccc2N1 [Example 93, 8-[3-(2-quinolinylmethoxy)benzylidenamino]-3,4-dihydro-2H-1,4-benzothiazin-3-one]	inhibition at 10 µM (H1 receptor): 38%
44%	0.523 µM	Cc1ccc(OCc2cccc(OCc3ccc4ccccc4n3)c2)c2cc(C#N)c(=O)[nH]c12 [Example 3, 3-Cyano-8-methyl-5-[3-(2-quinolinylmethoxy)benzyloxy]-1,2-dihydroquinolin-2-one]	–
–	0.681 µM	CN1C(=O)CSc2c(NCc3cccc(OCc4ccc5ccccc5n4)c3)cccc21 [Example 97, 4-methyl-8-[3-(2-quinolinylmethoxy)benzylamino]-3,4-dihydro-2H-1,4-benzothiazin-3-one]	inhibition at 10 µM (H1 receptor): 7%
40%	–	O=C1CCc2cc(OC(=O)c3ccc(OCc4ccc5ccccc5n4)cc3)ccc2N1 [Example 64, 6-[4-(2-Quinolinylmethoxy)benzoyloxy]-1,2,3,4-tetrahydroquinolin-2-one]	inhibition at 100 µM (LTD4 receptor): 12%
43%	0.348 µM	O=C1CCc2cc(OC(=O)c3cccc(OCc4ccc5ccccc5n4)c3)ccc2N1 [Example 55, 6-[3-(2-Quinolinylmethoxy)benzoyloxy]-1,2,3,4-tetrahydroquinolin-2-one]	–
37%	0.208 µM	O=C1CSc2c(cccc2NC(=O)c2cccc(OCc3ccc4ccccc4n3)c2)N1 [Example 70, 8-(3-(2-Quinolinylmethoxy)benzoylamino]-3,4-dihydro-2H-1,4-benzothiazin-3-one]	–
–	0.0928 µM	O=C1NCCCc2cc(OCc3cccc(OCc4ncc5ccccc5n4)c3)ccc21 [Example 86, 7-[3-(2-quinazolinylmethoxy)benzyloxy]-2,3,4,5-tetrahydro-1H-benz[c]azepin-1-one]	inhibition at 10 µM (H1 receptor): 9%
43%	–	Cn1c(COc2cccc(COc3ccc4c(c3)S(=O)(=O)CC(=O)N4)c2)nc2ccccc21 [Example 79, 7-[3-(N-Methylbenzimidazol-2-yl-methoxy)benzyloxy]-3,4-dihydro-2H-1,4-benzothiazin-3-one 1,1-dioxide]	inhibition at 10 µM (LTD4 receptor): 42%

inhibition at 100 µM (H1 receptor; a: 100 μM)	Kd (LTD4 receptor)	Compound	further results
46%	0.209 µM	O=C1CCc2ccc(OCc3cccc(OCc4ccc5ccccc5n4)c3)cc2N1 [Example 7]	–
49%	–	CC1(C)C(=O)Nc2ccc(OC(=O)c3ccc(OCc4ccc5ccccc5n4)cc3)cc21 [Example 67, 3,3-Dimethyl-5-[4-(2-quinolinylmethoxy)benzoyloxy]-2,3-dihydro-1H-indol-2-one]	inhibition at 100 µM (LTD4 receptor): 52%
43%	–	O=C1CCc2ccc(OC(=O)c3ccc(OCc4ccc5ccccc5n4)cc3)cc2N1 [Example 65, 7-(4-(2-Quinolinylmethoxy]benzoyloxy]-1,2,3,4-tetrahydroquinolin-2-one]	inhibition at 100 µM (LTD4 receptor): 13%
–	0.31 µM	Cn1c(COc2cccc(COc3ccc4c(c3)CCCC(=O)N4)c2)nc2ccccc21 [Example 83]	inhibition at 10 µM (H1 receptor): 0%
–	0.148 µM	O=C1CCCc2cc(OCc3cccc(OCc4ccc5ccccc5n4)c3)ccc2N1 [Example 9, 7-[3-(2-Quinolinylmethoxy)benzyloxy]-2,3,4,5-tetrahydrobenz[b]azepin-2-one]	Kd (H1 receptor): 47.6 µM
40%	0.0306 µM	Cc1ccc(OC(=O)c2ccc(OCc3ccc4ccccc4n3)cc2)c2c1NC(=O)CC2 [Example 63, 8-Methyl-5-(4-(2-quinolinylmethoxy)benzoyloxy]-1,2,3,4-tetrahydroquinolin-2-one]	–
–	–	O=C1CSc2cc(N=Cc3cccc(OCc4ccc5ccccc5n4)c3)ccc2N1 [Example 91, 7-[3-(2-quinolinylmethoxy)benzylidenamino]-3,4-dihydro-2H-1,4-benzothiazin-3-one]	Kd (H1 receptor): 0.12 µM; inhibition at 10 µM (LTD4 receptor): 37%
43%	0.109 µM	O=C1CSc2cc(OCc3cccc(OCc4ccc5ccc(Cl)cc5n4)c3)ccc2N1 [Example 32, 7-[3-(7-chloro-2-quinolinylmethoxy)benzyloxy]-3,4-dihydro-2H-1,4-benzothiazin-3-one]	–
28%	0.428 µM	CC1(C)C(=O)Nc2cc(OC(=O)c3ccc(OCc4ccc5ccccc5n4)cc3)ccc21 [Example 68, 3,3-Dimethyl-6-(4-(2-quinolinylmethoxy)benzoyloxy]-2,3-dihydro-1H-indol-2-one]	–
57%	0.316 µM	Cc1ccc(OCc2cccc(OCc3ccc4ccccc4n3)c2)c2c1NC(=O)CC2 [Example 5, 8-Methyl-5-[3-(2-quinolinylmethoxy)benzyloxy]-1,2,3,4-tetrahydroquinolin-2-one]	–
–	6.3 µM	CCOCCn1c(COc2cccc(COc3ccc4c(c3)SCC(=O)N4)c2)nc2ccccc21 [Example 44, 7-[3-(N-ethoxylethylbenzimidazol-2-yl-methoxy)benzyloxy]-3,4-dihydro-2H-1,4-benzothiazin-3-one]	Kd (H1 receptor): 8.67 µM
–	–	7-[3-(2-quinolinylmethoxy)benzyloxy]-2,3,4,5-tetrahydro-tetrazolo-[5,1-a][2]benzazepin [Example 87]	Kd (H1 receptor; [1]): 67.2 µM; Kd (LTD4 receptor; [2]): 0.0114 µM
–	0.322 µM	O=C1CCc2cccc(OCc3cccc(OCc4ccc5ccccc5n4)c3)c2N1 [Example 8, 8-[3-(2-Quinolinylmethoxy)benzyloxy]-1,2,3,4-tetrahydroquinolin-2-one]	Kd (H1 receptor): 145 µM
28%	–	Cc1ccc(OCc2ccc(OCc3ccc4ccccc4n3)cc2)c2c1NC(=O)CC2 [Example 21, 8-Methyl-5-[4-(2-quinolinylmethoxy)benzyloxy]-1,2,3,4-tetrahydroquinolin-2-one]	inhibition at 10 µM (LTD4 receptor): 33%
–	0.301 µM	O=C1CCc2cccc(OCc3ccc(OCc4ccc5ccccc5n4)cc3)c2N1 [Example 24, 8-[4-(2-Quinolinylmethoxy)benzyloxy]-1,2,3,4-tetrahydroquinolin-2-one]	Kd (H1 receptor): 25.8 µM
–	–	O=C1CCc2ccc(OC(=O)c3cccc(OCc4ccc5ccccc5n4)c3)cc2N1 [Example 56, 7-[3-(2-Quinolinylmethoxy)benzoyloxy]-1,2,3,4-tetrahydroquinolin-2-one]	Kd (H1 receptor): 93 µM; inhibition at 100 µM (LTD4 receptor): 12%
